Where no end group is shown, it is not given here.
Columns and labels:
anti-β2GPI G-3 mAb = assay: ELISA for adhesion molecule expression on HUVEC exposed to G-3 mAb; format: cell-based, human; conditions: G-3 mAb preincubated with peptide
Protocol: FIG. 4 is a bar graph showing inhibition of expression of the adhesion molecules E-selectin, intracellular adhesion molecule-1 (ICAM-1) and vascular cell adhesion molecule-1 (VCAM-1) on HUVEC by specific inhibitory monomer peptides A, B, or C. To the HUVEC incubated with β2GPI, were added anti-β2GPI ILA-1, ILA-3 and G-3 mAbs with and without preincubation (2 h) with the peptide monomers A, B and C, respectively, and control peptide D. The expression of adhesion molecules was probed by ELISA employing biotinylated anti-human ICAM-1, VCAM-1, E-selectin and streptavidin-alkaline phosphatase. Each point represents mean±SD of three different experiments.
(h) ELISA for detecting the expression of adhesion molecules following exposure to anti-β2GPI mAbs and the inhibitory peptides. HUVEC cells grown in 96-well plates and preincubated with mAbs, with and without different concentrations of specific and irrelevant peptides (100 ug/ml), were washed, fixed with 0.1% glutaraldehyde, and then treated with PBS containing 0.2% Triton-X100 in order to permeabilize the cell membrane (Adamson et al., 1996). The plates were blocked with 3% BSA and incubated with biotinylated mouse anti-human E-selectin, anti-human intracellular adhesion molecule-1 (ICAM-1) or anti-human vascular cell adhesion molecule-1 (VCAM-1) (PharMingen, Torreyana Road, San Diego, Calif.) 1 μg/ml for 1 hour. The cells were then exposed to streptavidin alkaline phosphatase (Jackson) and appropriate substrate.
The enhancement of monocytes to endothelial cells followed by increase in the amount of adhesion molecules expression, as a result of exposure of endothelial cells to anti-β2GPI mAbs, has been observed previously at the laboratory of one of the present inventors. The effect of each specific peptide monomer A, B, C on the expression of the adhesion molecules E-selectin, ICAM-1 and VCAM-1 on HUVEC caused by the corresponding anti-β2GPI mAb, was examined according to Materials and Methods, section (h). […]

anti-β2GPI ILA-3 mAb = assay: U937 monocyte adhesion to HUVEC exposed to ILA-3 mAb; format: cell-based, human; conditions: ILA-3 mAb preincubated with peptide, 15 μM peptide
Protocol: FIGS. 3A–3C are graphs showing inhibition of U937 monocyte cell adhesion to HUVEC upon exposure to anti-β2GPI ILA-1, ILA-3 and G-3 mAbs and increasing concentrations of the inhibitory monomer peptides A, B and C, respectively, and of unrelated peptide D as control. The percentage of inhibition of adhesion was calculated as follows: % inhibition of adhesion=CPM in the presence of anti-β2GPI mAb−CPM in the presence of anti-β2GPI mAb and the tested peptide/CPM in the presence of anti-β2GPI mAb×100 (CPM=counts/min). Each point represents mean±SD of three different experiments.
(g) Adherence of U937 monocyte cells to endothelial cells in the presence of anti-β2GPI mAbs and the inhibitory peptides. This assay was performed as previously described (Carvalho et al., 1996). Briefly, U937 cells (a monocyte/macrophage-like cell line) were pretreated with heat-aggregated gamma-globulin for 30 min at 37° C. […] Radioactivity associated with adherence was quantified by beta-scintillation spectroscopy. The results were expressed as percent of added U937 cells that adhered and are presented as the mean±SD from 3–5 replicate wells.
The adhesion of monocytes to endothelial cells (EC) is considered a marker of EC activation. The percentage of adhesion is expressed as the portion of added U937 monocyte cells adhering to the HUVEC (thus reflecting the percentage of HUVEC coverage by the monocytes). […]

Row | Sequence | E-selectin expression by HUVEC (anti-β2GPI G-3 mAb) [O.D.] | ICAM-1 expression by HUVEC (anti-β2GPI G-3 mAb) [O.D.] | VCAM-1 expression by HUVEC (anti-β2GPI G-3 mAb) [O.D.] | inhibition of adhesion of U937 to HUVEC (anti-β2GPI ILA-3 mAb) [%]
1 | CATLRVYKGG [Peptide C] | 0.215±0.047 | 0.186±0.062 | 0.174±0.062 | 
2 | KDKATFGTHDG [Peptide B] |  |  |  | 95

— US7053178B2, “Synthetic peptides and kits for diagnosis of anti-phospholipid syndrome” (Yeda Research Development Co., LTD, priority 1998, dated 2006)
